# Data taken from patent US20210196731A1, “COMPOSITIONS AND METHODS FOR TREATING OCULAR INFLAMMATION AND OCULAR SCARRING” (priority 2018, published 2021).
# Tests used:
# [1] = system: HTCFs; assay: Collagen Contraction Assay II (dose dependence); type: cell-based, human
# Method: (§1) The cell-collagen solution was pipetted gently to ensure homogenous distribution of HTCFs while avoiding the production of air bubbles, then 500 ul were pipetted into each well of a 24-well tray. Collagen constructs were allowed to polymerize at 37 C for 45 minutes before adding low serum culture media containing DMEM, 2% Fetal Bovine Serum (FBS), 1% penicillin/streptomycin (P/S).
# Tension was allowed to build up within the tethered matrix at 37 C and 5% CO2 for 72 hours before a sterile spatula was used to detach each collagen construct from the edges of the culture well. Plates were then immediately scanned on a flat bed laser scanner once per 24 hours for a total of 4 days. The surface area of each collagen construct was measured using ImageJ (NIH) and standardized against the baseline surface area measurement to express changes in area as a percentage of original surface area.
# The gentamicin concentrations assessed were delivered in a solution contained DMEM with 2% FBS, 1% penicillin/streptomycin and either 100, 250, 500, 750 or 100 μg/ml gentamicin (Sigma-Aldrich, CAT. NO: G1397). The ASA concentrations assessed were delivered in a solution of DMEM with 2% FBS, 1% penicillin/streptomycin and either 500, 1000 or 1500 μg/ml ASA (Sigma-Aldrich, CAT. NO: A5376). […]
# [2] = system: PPARγ; assay: Western blot of HTCF protein lysate, PPARγ; type: cell-based, human; conditions: AHGFs; ASA 100, 400, 1600 μg/ml, 48 hrs
# Method: Cells were lysed in lysis buffer (PhosphoSafe Extraction Reagent, Novagen) containing a protease inhibitor cocktail (P2714, Sigma-Aldrich). Crude protein lysate was quantified using a Pierce BCA protein assay kit (ThermoFisher, Mississauga, ON) and 10 ug from each sample was resolved using a Novex WedgeWell 4-20% tris-glycine gel (Invitrogen). Using an iBlot Gel Transfer Device (IB1001, Invitrogen), the separated protein was transferred to a nitrocellulose membrane (1B301001, iBlot Transfer Stack, Invitrogen) which was then blocked with 5% (w/v) bovine serum albumin (Sigma-Aldrich) in Tris buffered saline (TBST) for 1 hour at room temperature. The membranes were incubated overnight at 4° C. with primary antibody diluted in TBST containing 5% BSA (w/vol). Primary antibodies used were as follows: collagen 1 (ab138492, Abcam), αSMA (ab5694, Abcam), MMP9 (ab38898, Abcam), PPARγ (sc-7273, SantaCruz Biotechnology), SMAD2/3 (ab63672, Abcam), pSMAD2/3 (ab63399, Abcam) and GAPDH (sc-47724, Santa Cruz Biotechnology, Inc.). […] Imaging and relative densiometric quantification was accomplished using a ChemiDoc MP System (Bio-Rad Laboratories, Inc.) connected to Image Lab (Version 6, Bio-Rad Laboratories, Inc.).
# [3] = system: HTCFs; assay: Collagen Contraction Assay III (TGFB1-induced); type: cell-based, human; conditions: ASA 1000 or 1500 μg/ml, with or without gentamicin; TGFB1 2 ng/ml added at 48 hrs
# Method: A modified delayed release fibroblast populated collagen lattice model was used to assess inhibition of TGFB1-induced collagen contraction by ASA and gentamicin. HTCFs were seeded at a density of 2.5×10^5 cells/mL within an extracellular matrix (ECM) mixture containing 400 ul of rat tail-derived type I collagen (1.8 mg/ml), 80 ul of neutralizing solution (equal parts Waymouth's media (Gibco, CAT. NO: 11220035) and 0.275M NaOH) and 20 ul of HTCF conditioned media (concentrated to 25× to obtain a 1× final concentration within the 500 ul matrix solution). The cell-collagen solution was pipetted gently to ensure homogenous distribution of HTCFs while avoiding the production of air bubbles, then 500 ul were pipetted into each well of a 24-well tray. […]
# Tension was allowed to build up within the tethered matrix at 37 C and 5% CO2 for 72 hours before a sterile spatula was used to detach each collagen construct from the edges of the culture well. Plates were then immediately scanned on a flat bed laser scanner for a baseline area reading and then measured again regularly for a total of 4 days. […] The surface area of each collagen construct was measured using ImageJ (NIH) and standardized against the baseline surface area measurement to express changes in area as a percentage of original surface area. […]
# [4] = system: human Tenon's capsule fibroblasts (HTCFs); assay: Collagen Contraction Assay I (delayed release fibroblast populated collagen lattice); type: cell-based
# Method: The delayed release fibroblast populated collagen lattice model was used to assess inhibition of gel contraction [58] by ASA and gentamicin. […] Cell free collagen lattices were prepared identically, however to isolate the effects of HTCFs alone on collagen, constructs without HTCFs were cast as a negative control. The cell-collagen solution was pipetted gently to ensure homogenous distribution of HTCFs while avoiding the production of air bubbles, then 500 ul were pipetted into each well of a 24-well tray. Collagen constructs were allowed to polymerize at 37 C for 45 minutes before adding low serum culture media containing DMEM, 2% Fetal Bovine Serum (FBS), 1% penicillin/streptomycin (P/S).
# Tension was allowed to build up within the tethered matrix at 37 C and 5% CO2 for 72 hours before a sterile spatula was used to detach each collagen construct from the edges of the culture well. Plates were then immediately scanned on a flat bed laser scanner and then once per hour for the first 12 hours, then daily for a total of 4 days. The surface area of each collagen construct was measured using ImageJ (NIH) and standardized against the baseline surface area measurement to express changes in area as a percentage of original surface area.
# Vehicle control treatment solution comprised of DMEM with 2% FBS and 1% penicillin/streptomycin. The gentamicin treatment solution contained DMEM with 2% FBS, 1% penicillin/streptomycin and 1000 μg/ml gentamicin (w/vol) (Sigma-Aldrich, CAT. NO: G1397). The ASA treatment solution contained DMEM with 2% FBS, 1% penicillin/streptomycin and 2000 μg/ml ASA (w/vol) (Sigma-Aldrich, CAT. NO: A5376). The gentamicin-ASA combination treatment solution (Gent+ASA) contained DMEM with 2% FBS, 1% penicillin/streptomycin, 1000 μg/ml gentamicin (w/vol.) and 2000 μg/ml ASA (w/vo).
# Culture media was removed from collagen constructs twice daily and replaced with one of the four treatment solutions for a duration of 15 minutes. […]
# [5] = system: HTCFs; assay: Collagen Contraction Assay IV (AHGF induced, ASA and gentamicin vs mitomycin C); type: cell-based, human; conditions: ASA 1500 μg/ml and/or gentamicin 750 μg/ml; comparator mitomycin C 0.2 mg/ml for 4 minutes
# Method: as §1
# Tension was allowed to build up within the tethered matrix at 37 C and 5% CO2 for 72 hours before a sterile spatula was used to detach each collagen construct from the edges of the culture well. Plates were then immediately scanned on a flat bed laser scanner and then periodically for a total of 4 days. The surface area of each collagen construct was measured using ImageJ (NIH) and standardized against the baseline surface area measurement to express changes in area as a percentage of original surface area.
# In this modification of the assay, AHGFs are added to all culture media the collagen constructs are exposed to—from casting of the collagen constructs to the conclusion of contraction. The experimental treatment solutions—all also containing AHGFs—were added 30 minutes prior to detaching the collagen constructs from the culture wells and remained until experimental conclusion. […] DMEM w/2% FBS was added for the remainder of the experiment).
smiles,measurement,setting,value
"CC(=O)Oc1ccccc1C(=O)O [ASA, acetylsalicylic acid]",HTCF-mediated collagen contraction,"[1]; ASA 500 μg/ml, alone or with gentamicin 100-1000 μg/ml (FIG. 8C)",no significant treatment effects found
same,HTCF-mediated collagen contraction,"[1]; ASA alone, 500, 1000, 1500 μg/ml, four days (FIG. 8B)",dose dependent inhibition of HTCF-mediated collagen contraction
same,expression of PPARγ,[2],significantly induce expression of PPARγ
same,HTCF-mediated collagen contraction before and after TGFb1 stimulus,[3],"significantly impair HTCF-mediated contraction, at all concentrations assessed, both before and after stimulus with TGFb1"
same,contraction evident by the end of the four-day period,[4]; ASA 2000 μg/ml alone,approximately 20%
same,HTCF mediated collagen contraction,"[4]; gentamicin 1000 μg/ml and/or ASA 2000 μg/ml, 15 minutes twice daily, four day assay, vs vehicle control",significantly inhibited contraction compared to vehicle control at all time points after the first hour of the experiment
same,"AHGF induced, HTCF-mediated collagen contraction",[5],"significantly negate the effects of the AHGFs on HTCF-mediated collagen contraction, albeit significantly less than the current ophthalmic clinical gold standard"
